Data on one compound can be found in patent US20040162297A1, “Adenosine derivative in polymorph I form” (priority 2001, published 2004).

The data set can be described thus: stability of the polymorphic form at ambient temperatures. Type of data set: physicochemical.

As for `CC(C)(C)c1nnc([C@H]2O[C@@H](n3cnc4c(Nc5ccc(Cl)cc5F)ncnc43)[C@H](O)[C@@H]2O)o1` [Polymorph I, (2S,3S,4R,5R)-2-(5-tert-butyl-[1,3,4]-oxadiazol-2-yl)-5-[6-(4-chloro-2-fluorophenylamino)-9H-purin-9-yl]-tetrahydrofuran-3,4-diol], the “stability at ambient temperatures” value was “particular stability”.
